Read-outs that look alike come from different tables or passages of the source.
How the values were obtained:
Format in all cases: cell-based, human
LOX (lysyl oxidase) = experiment: cells; details: Homo sapiens
Description: (§1) Methods: The hepatic tri-culture system, including adult primary human hepatocytes (PHHs), endothelial cells and stromal cells, was cultured with and without primary KCs, at a ratio of 1 KC:4 PHH or 1 KC:2 PHH, in a glucocorticoid-containing or -free media. […] MTX or TGF-β1 or […] (LPS) cause hepatic injury. The injury leads to lipid accumulation, lipotoxicity and cytokines are produced. These activate the KCs and the liver sinusoidal endothelial cells (LSEC). Then stromal activation and gene expressions occur, leading to liver fibrosis.
(§2) Following exposure to methotrexate (MTX; 0.1 and 1 μM; Sigma-Aldrich, St. Louis, MO) or TGF-β1 (0.1 and 10 ng/ml; Miltenyi Biotec, Gaithersburg, MD) or vehicle (DMSO; 0.1% v/v), the expression of various genes known to have a role in fibrogenic responses (e.g., LGALS3, LOX, MMP1) was determined. MTX and TGF-β1 are known fibrogenic compounds Cell health was assessed by urea production and LDH release in the medium.
(§3) The experiments were done in a 96-well format according to the details shown below. […] The hepatocytes were from an individual adult lot. The Kupffer cells (KCs) were from an individual adult lot. The seeding density of the Kupffer cells to the hepatocytes was selected to mimic healthy or inflammatory physiological levels (1:4 or 1:2 ratio). The seeding of the KCs occurred on Day 1 of the culture (meaning 24 hours post-hepatocyte plating).
(§4) All hepatocyte plating was performed using TCPM with Dex (1 μM), as above. Four hours after hepatocyte plating, TCCM was added with and without Dex (half of the cultures with Dex, half without.) The media used were those as described above. The medium exchange process was to do 50% media changes following KC plating up until the compound addition.
(§5) Thawing and plating of the hepatocytes was done according to methods as known in the art. The next day (24 hours) after plating the cells, the KCs were added in TCCM with or without Dex (0.1 μM) at a 1:4 or 1:2 ratio to hepatocytes. The next day and subsequent days, 50% volume of medium was changed each day. Starting at day 5 of culture, the compounds tested were added in the 50% medium volume and allowed to go, unchanged, through Day 8 of culture (72 hr treatment); or to 120 hr treatment times. The treatment compounds were methotrexate (0.1 and 1.0 μM) and TGF-β1 (0.1 and 10 ng/ml).
(§6) The cell harvest and analytical endpoints were done as follows. Phase contrast images were captured each day. The media samples were collected for lactate dehydrogenase (LDH) assay at the end of each treatment period (i.e., 72 or 120 hours of treatment with each compound). The results were used to assess cell health. Cell lysates were harvested for gene expression analysis. 2 wells were combined per sample. The treatment samples were analyzed in triplicate. The following genes that have a role in fibrogenic response were observed. LGALS3 (Galectin3); LOX (lysyl oxidase), MMP1 (matrix Metalloproteinase 1); Housekeeping gene (β-actin). The images in FIGS. 44 and 45 are at 200×.

LGALS3 (Galectin3) = experiment: cells; details: for fold induction at 0.1 µM / fold induction at 1 µM: Homo sapiens
Description: as §1, §2, §3, §4, §5, §6

[1] = system: MMP1 (matrix Metalloproteinase 1); experiment: cells; details: Homo sapiens
Description: as §1, §2, §3, §4, §5, §6

[2] = system: genes known to have a role in fibrogenic responses (e.g., LGALS3, LOX, MMP1); experiment: Fibrogenic response gene expression overall, Example 9; details: DEX / no DEX, with / without KCs
Description: as §1, §2, §3, §4
Thawing and plating of the hepatocytes was done according to methods as known in the art. The next day (24 hours) after plating the cells, the KCs were added in TCCM with or without Dex (0.1 μM) at a 1:4 or 1:2 ratio to hepatocytes. […]
The cell harvest and analytical endpoints were done as follows. […] The treatment samples were analyzed in triplicate. […]

Structure (SMILES): CN(Cc1cnc2nc(N)nc(N)c2n1)c1ccc(C(=O)N[C@@H](CCC(=O)O)C(=O)O)cc1 [MTX, methotrexate]
- fold induction at 0.1 µM (LOX (lysyl oxidase); 72 h, read-out: LOX fold induction Mean, 72 hours, with Dex, No KC, MTX 0.1 μM): 1.2
- fold induction at 1 µM (LOX (lysyl oxidase); 72 h, read-out: LOX fold induction Mean, 72 hours, with Dex, No KC, MTX 1 μM): 1.1
- fold induction at 0.1 µM (LOX (lysyl oxidase); 72 h, read-out: LOX fold induction Mean, 72 hours, with Dex, with KCs, MTX 0.1 μM): 1
- fold induction at 1 µM (LOX (lysyl oxidase); 72 h, read-out: LOX fold induction Mean, 72 hours, with Dex, with KCs, MTX 1 μM): 1
- fold induction at 0.1 µM (LOX (lysyl oxidase); 72 h, read-out: LOX fold induction Mean, 72 hours, without Dex, No KC, MTX 0.1 μM): 1.1
- fold induction at 1 µM (LOX (lysyl oxidase); 72 h, read-out: LOX fold induction Mean, 72 hours, without Dex, No KC, MTX 1 μM): 1.1
- fold induction at 0.1 µM (LOX (lysyl oxidase); 72 h, read-out: LOX fold induction Mean, 72 hours, without Dex, with KCs, MTX 0.1 μM): 1.3
- fold induction at 1 µM (LOX (lysyl oxidase); 72 h, read-out: LOX fold induction Mean, 72 hours, without Dex, with KCs, MTX 1 μM): 1.5
- fold induction at 1 µM (LOX (lysyl oxidase); 120 h, read-out: LOX fold induction Mean, 120 hours, with Dex, No KC, MTX 1 μM): 0.8
- fold induction at 0.1 µM (LOX (lysyl oxidase); 120 h, read-out: LOX fold induction Mean, 120 hours, with Dex, with KCs, MTX 0.1 μM): 1
- fold induction at 1 µM (LOX (lysyl oxidase); 120 h, read-out: LOX fold induction Mean, 120 hours, with Dex, with KCs, MTX 1 μM): 1.1
- fold induction at 0.1 µM (LOX (lysyl oxidase); 120 h, read-out: LOX fold induction Mean, 120 hours, without Dex, No KC, MTX 0.1 μM): 1
- fold induction at 1 µM (LOX (lysyl oxidase); 120 h, read-out: LOX fold induction Mean, 120 hours, without Dex, No KC, MTX 1 μM): 1.2
- fold induction at 0.1 µM (LOX (lysyl oxidase); 120 h, read-out: LOX fold induction Mean, 120 hours, without Dex, with KCs, MTX 0.1 μM): 1.4
- fold induction at 1 µM (LOX (lysyl oxidase); 120 h, read-out: LOX fold induction Mean, 120 hours, without Dex, with KCs, MTX 1 μM): 1.5
- fold induction at 1 µM (LOX (lysyl oxidase); read-out: LOX gene expression, 1 μM MTX, presence of KCs, 72 hr and 120 hr): ≥ 1.5
- fold induction at 0.1 µM (LGALS3 (Galectin3); 72 h, read-out: LGALS3 fold induction Mean, 72 hours, with Dex, No KC, MTX 0.1 μM): 1
- fold induction at 1 µM (LGALS3 (Galectin3); 72 h, read-out: LGALS3 fold induction Mean, 72 hours, with Dex, No KC, MTX 1 μM): 1.2
- fold induction at 0.1 µM (LGALS3 (Galectin3); 72 h, read-out: LGALS3 fold induction Mean, 72 hours, with Dex, with KCs, MTX 0.1 μM): 1
- fold induction at 1 µM (LGALS3 (Galectin3); 72 h, read-out: LGALS3 fold induction Mean, 72 hours, with Dex, with KCs, MTX 1 μM): 1.1
- fold induction at 0.1 µM (LGALS3 (Galectin3); 72 h, read-out: LGALS3 fold induction Mean, 72 hours, without Dex, No KC, MTX 0.1 μM): 1.2
- fold induction at 1 µM (LGALS3 (Galectin3); 72 h, read-out: LGALS3 fold induction Mean, 72 hours, without Dex, No KC, MTX 1 μM): 1.2
- fold induction at 0.1 µM (LGALS3 (Galectin3); 72 h, read-out: LGALS3 fold induction Mean, 72 hours, without Dex, with KCs, MTX 0.1 μM): 1.5
- fold induction at 1 µM (LGALS3 (Galectin3); 72 h, read-out: LGALS3 fold induction Mean, 72 hours, without Dex, with KCs, MTX 1 μM): 1.7
- fold induction at 0.1 µM (LGALS3 (Galectin3); 120 h, read-out: LGALS3 fold induction Mean, 120 hours, with Dex, No KC, MTX 0.1 μM): 1.2
- fold induction at 1 µM (LGALS3 (Galectin3); 120 h, read-out: LGALS3 fold induction Mean, 120 hours, with Dex, No KC, MTX 1 μM): 1.1
- fold induction at 0.1 µM (LGALS3 (Galectin3); 120 h, read-out: LGALS3 fold induction Mean, 120 hours, with Dex, with KCs, MTX 0.1 μM): 0.9
- fold induction at 1 µM (LGALS3 (Galectin3); 120 h, read-out: LGALS3 fold induction Mean, 120 hours, with Dex, with KCs, MTX 1 μM): 1.1
- fold induction at 0.1 µM (LGALS3 (Galectin3); 120 h, read-out: LGALS3 fold induction Mean, 120 hours, without Dex, No KC, MTX 0.1 μM): 1.1
- fold induction at 1 µM (LGALS3 (Galectin3); 120 h, read-out: LGALS3 fold induction Mean, 120 hours, without Dex, No KC, MTX 1 μM): 0.2
- fold induction at 0.1 µM (LGALS3 (Galectin3); 120 h, read-out: LGALS3 fold induction Mean, 120 hours, without Dex, with KCs, MTX 0.1 μM): 1.4
- fold induction at 1 µM (LGALS3 (Galectin3); 120 h, read-out: LGALS3 fold induction Mean, 120 hours, without Dex, with KCs, MTX 1 μM): 1.4
- LGALS3 gene expression (LGALS3 (Galectin3); MTX at both concentrations, presence of KCs, 120 hr versus 72 hr): slight decline
- fold induction at 0.1 µM ([1]; 72 h, read-out: MMP1 fold induction Mean, 72 hours, with Dex, No KC, MTX 0.1 μM): 1.2
- fold induction at 1 µM ([1]; 72 h, read-out: MMP1 fold induction Mean, 72 hours, with Dex, No KC, MTX 1 μM): 1.2
- fold induction at 0.1 µM ([1]; 72 h, read-out: MMP1 fold induction Mean, 72 hours, with Dex, with KCs, MTX 0.1 μM): 1.1
- fold induction at 1 µM ([1]; 72 h, read-out: MMP1 fold induction Mean, 72 hours, with Dex, with KCs, MTX 1 μM): 0.9
- fold induction at 0.1 µM ([1]; 72 h, read-out: MMP1 fold induction Mean, 72 hours, without Dex, No KC, MTX 0.1 μM): 0.9
- fold induction at 1 µM ([1]; 72 h, read-out: MMP1 fold induction Mean, 72 hours, without Dex, No KC, MTX 1 μM): 0.7
- fold induction at 0.1 µM ([1]; 72 h, read-out: MMP1 fold induction Mean, 72 hours, without Dex, with KCs, MTX 0.1 μM): 1.2
- fold induction at 1 µM ([1]; 72 h, read-out: MMP1 fold induction Mean, 72 hours, without Dex, with KCs, MTX 1 μM): 1.4
- fold induction at 1 µM ([1]; 72 h, read-out: MMP1 gene expression, 1 μM MTX, presence of KCs, 72 hr only): 1.4
- fold induction at 1 µM ([1]; 120 h, read-out: MMP1 fold induction Mean, 120 hours, with Dex, No KC, MTX 1 μM): 0.7
- fold induction at 0.1 µM ([1]; 120 h, read-out: MMP1 fold induction Mean, 120 hours, with Dex, with KCs, MTX 0.1 μM): 1
- fold induction at 1 µM ([1]; 120 h, read-out: MMP1 fold induction Mean, 120 hours, with Dex, with KCs, MTX 1 μM): 0.6
- fold induction at 0.1 µM ([1]; 120 h, read-out: MMP1 fold induction Mean, 120 hours, without Dex, No KC, MTX 0.1 μM): 0.7
- fold induction at 1 µM ([1]; 120 h, read-out: MMP1 fold induction Mean, 120 hours, without Dex, No KC, MTX 1 μM): 0.7
- fold induction at 0.1 µM ([1]; 120 h, read-out: MMP1 fold induction Mean, 120 hours, without Dex, with KCs, MTX 0.1 μM): 0.7
- fold induction at 1 µM ([1]; 120 h, read-out: MMP1 fold induction Mean, 120 hours, without Dex, with KCs, MTX 1 μM): 0.9
- culture conditions in which effects on fibrogenic genes were observed [2]: observed on the no DEX treated groups with KCs

From patent US20260287577A1, “APPLICATIONS OF HEPATOCYTE CO-CULTURE SYSTEM” (LifeNet Health, priority 2023, published 2026)
